Laboratory results taken from publication PMC4249368 (Antimicrobial Agents and Chemotherapy, 2014).

Experiments:
[1] = SPR binding to lipid bilayers on Biacore L1 chip; conditions: for normalized antibiotic bound to the three lipid bilayers (result in words): 10 μM, normalized to molecular weight and RULipid, Fig. 3B, n = 3
Procedure: Lipid stock solutions were prepared in chloroform and mixed at the described mass composition of POPC, POPC/POPG (8:2, wt/wt) and POPC/POPE (8:2, wt/wt) ([33]), and the chloroform was evaporated as previously described ([34]). The lipids were resuspended in 1 ml of filtered (0.22-μm pore size) running buffer (phosphate-buffered saline [PBS]; pH 7.3) and then sonicated for 25 min in 5-min intervals. Small unilamellar vesicles (SUVs) were prepared by extrusion through a polycarbonate filter with a 50-nm pore diameter ([35]).
SPR experiments were carried out with a Biacore T200 system (GE Health, Australia) using a Biacore vesicle capture (L1) sensor chip, which has lipophilic groups covalently attached to carboxymethylated dextran that facilitates direct lipid bilayer deposition ([34], [36]). All measurements were undertaken at a temperature of 25°C to maintain the lipid bilayer fluidity ([34]). SUVs at a total lipid concentration of 0.5 mg/ml were immediately passed across the chip surface for 60 min at a low flow rate of 2 μl/min, following three 30-s injections of 20 mM 3-cholamidopropyl-dimethylammonio-1-propane sulfonate (CHAPS) solution at a high flow rate of 30 μl/min to completely remove the captured vesicles from the sensor chip. To remove any multilamellar structures from the lipid surface and to stabilize the baseline, 10 mM NaOH was injected for 1 min at 50 μl/min. The coverage extent of the surface was later determined by a 5-min injection of 0.1 mg/ml bovine serum albumin (BSA) at a flow rate of 10 μl/min.
The antibiotics were serially diluted in running buffer and then injected sequentially from the lowest (0.01 μM) to the highest (10 μM) concentration at a flow rate of 20 μl/min for 180 s, followed by a dissociation of 300 s and a 1-min regeneration with 10 mM HCl at a flow rate of 10 μl/min. SPR experiments were performed in triplicate. The actual amount of antibiotic bound to each lipid bilayer was corrected by subtraction of the bulk refractive index difference (buffer control) and then normalized by dividing the antibiotic-bound resonance units (RUBound) obtained in the SPR sensorgrams (see Fig. 3A, below) by the corresponding antibiotic molecular weight and the resonance units of the individual lipid vesicle captured on the chip surface (RULipid) (see Fig. S1 in the supplemental material) by using the following equation: normalized antibiotic bound = (10^3 × RUBound)/(molecular weight × RULipid). Normalization against molecular weight and RULipid was necessary, as SPR units are mass dependent and RULipid values vary according to lipid type ([37]).

[2] = tested on: MurG-catalyzed reaction of peptidoglycan biosynthesis; conditions: relative to MIC against MSSA ATCC 25923; cited from earlier work
[3] = tested on: transglycosylation step of peptidoglycan biosynthesis; conditions: relative to MIC against MSSA ATCC 25923; cited from earlier work
MSSA and MRSA strains = conditions: cited from earlier work
Excerpt: The importance of the membrane depolarization and bactericidal killing in vivo is difficult to quantify due to the limited published pharmacokinetic (PK) studies ([18], [19]), as well as its nonsystemic oral administration in human clinical trials. In addition, MIC determinations can be highly dependent on plate type, serum, and BSA ([18], [41]).

| Compound | normalized antibiotic bound to the three lipid bilayers (result in words) [1] | SPR dissociation after completion of injection ([1]; 0.01 to 1 μM) | SPR association with membranes at low concentrations ([1]; 0.01 to 1 μM, PBS pH 7.3, 25°C) | SPR binding response (RUBound) ([1]; 3 and 10 μM, both anionic and zwitterionic membranes, 180 s injection, PBS pH 7.3, 25°C) | concentration at which binding to anionic and zwitterionic membranes occurs ([1]; dose-dependent) | IC50, MurG-catalyzed reaction [2] | 50% inhibitory concentration (IC50), transglycosylation [3] | effect of 50% human serum on MIC (MSSA and MRSA strains) |
| --- | --- | --- | --- | --- | --- | --- | --- | --- |
| CN[C@H](CC(C)C)C(=O)N[C@H]1C(=O)N[C@@H](CC(N)=O)C(=O)N[C@H]2C(=O)N[C@H]3C(=O)N[C@H](C(=O)N[C@H](C(=O)O)c4cc(O)cc(O)c4-c4cc3ccc4O)[C@H](O)c3ccc(c(Cl)c3)Oc3cc2cc(c3O[C@@H]2O[C@H](CO)[C@@H](O)[C@H](O)[C@H]2O[C@H]2C[C@](C)(N)[C@H](O)[C@H](C)O2)Oc2ccc(cc2Cl)[C@H]1O [vancomycin] | negligible binding to each of the three different membranes |  |  |  |  |  |  |  |
| ramoplanin | POPC:POPG (8:2) > POPC > POPC:POPE (8:2) | complete dissociation | negligible association | ~6,000 RU | ≥ 3 µM | 20 × MIC | 0.25 × MIC | not affected |
